In patent US10947284B2, “Fusion molecules” (Pieris Pharmaceuticals GMBH, priority 2015, dated 2021):
Starred links: 1 amine or outer side, 2 acyl side, 3 side chain; linkers in the order of their positions; H or OH if unused. Non-standard residues stand in square brackets, D forms with d. Residues, ends and D or L forms follow the SMILES beside them. *: point of attachment. X1 = O=C([C@@H]1CCNc2c(N[*:1])cc3cc(O)c(O)cc3[n+]21)[*:2]; dOrn(N5-OH,N5-CHO) = N[C@H](CCCN(O)C=O)C(=O)O; d(aThr) = C[C@@H](O)[C@@H](N)C(=O)O; Suc = O=C(CCC(=O)[*:2])[*:1]; X2 = O=C1[C@@H](N*)CCCN1[O-]; Orn = NCCC[C@H](N)C(=O)O

Tests used:
[1] = target: T1, hNGAL (human lipocalin 2, parent wild type SEQ ID NO: 1) mutein SEQ ID NO: 62 (Homo sapiens, UniProt P80188, A60Q/C107S/D65G/D97L/I61W/K145F/K154F/K66R/K93I/L123G/L56H/L90D/N85D/Q69R/R101T/R92A/S147I/S88D/W99R/Y120H/Y126G/Y152A/Y72W); experiment: Surface plasmon resonance (Biacore T200), CM5 chip; type: binding; conditions: SPR, high concentrations (≥1 μM)
T1 construct: made in house
Method: (§1) Subsequently, 5 μg/mL of mutein or the negative control solution in 10 mM acetate pH 4.0 was applied at a flow rate of 10 μl/min until a high immobilization level of approximately 2000 RU was achieved. Residual activated groups were quenched with ethanolamine. The reference channels were treated with EDC/NHS following ethanolamine (blank immobilization).
The binding assay was carried out with a contact time of 180 s, dissociation times of 1200-1800 s and applying a flow rate of 30 μl/min. Measurements were performed at 25° C. Regeneration of the immobilized mutein surface was achieved by three consecutive injections of 10 mM Gly-HCl pH 1.5 (120 s) followed by an extra wash with running buffer and a stabilization period. Data were evaluated with Biacore T200 Evaluation software (V 1.0). Double referencing was used. The 1:1 Binding model was used to fit the raw data.
Subsequently, 5 μg/mL of mutein or the negative control solution in 10 mM acetate pH 4.0 was applied at a flow rate of 10 μl/min until a high immobilization level of approximately 2000 RU was achieved. Residual activated groups were quenched with ethanolamine. The reference channels were treated with EDC/NHS following ethanolamine (blank immobilization). […] The binding assay was carried out with a contact time of 180 s, dissociation times of 1500-1800 s and applying a flow rate of 30 μl/min. Measurements were performed at 25° C. Regeneration of the immobilized mutein surface was achieved by three consecutive injections of 10 mM Gly-HCl pH 1.5 (120 s) followed by an extra wash with running buffer and a stabilization period. Data were evaluated with Biacore T200 Evaluation software (V 1.0). Double referencing was used. The 1:1 Binding model was used to fit the raw data.

[2] = target: T2, Fusion molecule SEQ ID NO: 134 (hNGAL muteins SEQ ID NOs: 36, 16, 53 and 62) (Homo sapiens, UniProt P80188, A60T/C107S/D97H, form not given/K145I/K154W/K93R/L123T/L56V/L90R/N85D/Q69G/R101D/R92I/S147R/S88D/T74A/W99Y/Y126Q/Y152I/Y72N); experiment: Surface plasmon resonance (Biacore T200); type: binding; conditions: for binding: SPR
T2 construct: made in house; host or cells: HEK293
T2 sequence (P80188 with tags, fused parts or gaps with the stated changes, form open): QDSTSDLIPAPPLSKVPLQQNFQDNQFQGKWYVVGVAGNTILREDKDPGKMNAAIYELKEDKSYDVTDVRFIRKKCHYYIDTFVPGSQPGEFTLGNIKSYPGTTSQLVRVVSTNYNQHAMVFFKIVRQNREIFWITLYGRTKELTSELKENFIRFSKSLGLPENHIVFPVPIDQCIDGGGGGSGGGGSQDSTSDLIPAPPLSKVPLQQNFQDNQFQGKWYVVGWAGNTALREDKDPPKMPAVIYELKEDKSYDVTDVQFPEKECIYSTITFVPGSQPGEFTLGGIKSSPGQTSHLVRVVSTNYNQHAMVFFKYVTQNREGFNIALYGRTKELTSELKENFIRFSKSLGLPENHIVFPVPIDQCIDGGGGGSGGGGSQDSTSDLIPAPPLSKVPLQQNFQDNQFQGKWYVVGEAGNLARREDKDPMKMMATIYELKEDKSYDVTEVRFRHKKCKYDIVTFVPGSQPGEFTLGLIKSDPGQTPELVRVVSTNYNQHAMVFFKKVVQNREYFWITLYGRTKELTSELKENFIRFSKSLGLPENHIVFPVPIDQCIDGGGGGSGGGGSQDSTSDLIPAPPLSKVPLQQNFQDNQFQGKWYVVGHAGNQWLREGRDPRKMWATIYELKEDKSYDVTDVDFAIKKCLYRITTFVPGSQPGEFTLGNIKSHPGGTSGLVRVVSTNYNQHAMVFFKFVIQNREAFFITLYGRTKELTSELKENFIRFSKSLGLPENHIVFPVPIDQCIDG

[3] = target: lipocalin negative control SEQ ID NO: 64 (Homo sapiens, UniProt P80188, C107S/Q48H); experiment: Surface plasmon resonance (Biacore T200); type: binding
Method: (§2) In a Surface Plasmon Resonance (SPR) based assay a Biacore T200 instrument (GE Healthcare) was used to measure the binding affinity of muteins to pyoverdine I succinyl, -succinamide, -α-ketoglutaryl with complexed iron ion or to pyoverdine II succinyl, -succinamide, -α-ketoglutaryl with complexed iron ion or to pyoverdine III succinyl, -succinamide, -α-ketoglutaryl with complexed iron ion. Muteins selected for binding to pyoverdines and negative control (SEQ ID NO: 64) were biotinylated for 2 h at room temperature applying an appropriate excess of EZ-Link NHS-PEG4-Biotin (Thermo, Cat #21329) followed by separation of non-reacted Biotin using a Zebra Spin Desalting Plate (Thermo, Cat #21329) according to the manufactures instructions.
(§3) In the SPR affinity assay, biotinylated muteins and negative control were captured on a sensor chip CAP using the Biotin CAPture Kit (GE Healthcare): Sensor Chip CAP is pre-immobilized with an ssDNA oligo. Undiluted Biotin CAPture Reagent (streptavidin conjugated with the complementary ss-DNA oligo) was applied at a flow rate of 2 μl/min for 300 s. Subsequently, 1 μg/ml to 100 μg/mL of biotinylated muteins or negative control were applied for 300 s at a flow rate of 5 μl/min. The reference channel was loaded with Biotin CAPture Reagent only.
(§4) Applying a flow rate of 30 μl/min, a single cycle or multi cycle kinetics approach was used with a sample contact time of 120-180 s and a dissociation time of 900-2400 s. […] After ligand immobilization, for analysis using single cycle kinetics all 4-5 concentrations of Pvd were applied consecutively in ascending order before the dissociation was monitored. For analysis using multi cycle kinetics 4 dilutions of Pvd were applied, each followed a dissociation phase. All measurements were performed at 25° C. […] Data were evaluated with Biacore T200 Evaluation software (V 1.0). Double referencing was used. A 1:1 Binding model was used to fit the raw data.
as §1
In the SPR affinity assay, biotinylated muteins and negative control were captured on a sensor chip CAP using the Biotin CAPture Kit (GE Healthcare), wherein the Sensor Chip CAP is pre-immobilized with an ssDNA oligo. Undiluted Biotin CAPture Reagent (streptavidin conjugated with the complementary ss-DNA oligo) was applied at a flow rate of 2 μl/min for 300 s. Subsequently, 20 μg/ml to 100 μg/mL of biotinylated muteins or fusion molecule negative control were applied for 300 s at a flow rate of 5 μl/min. The reference channel was loaded with Biotin CAPture Reagent only. To determine the binding affinity, four dilutions of the respective Pvd were prepared in HBS-EP+ buffer (GE Healthcare) and applied to the chip surface. Applying a flow rate of 30 μl/min, a single cycle kinetics approach was used with a sample contact time of 180 s and a dissociation time of 1800-2400 s. […] After ligand immobilization, the four concentrations of Pvd were applied consecutively in ascending order before the dissociation was monitored. All measurements were performed at 25° C. […] Data were evaluated with Biacore T200 Evaluation software (V 1.0). Double referencing was preformed. A 1:1 binding model was used to fit the raw data.

[4] = target: T3, hNGAL (human lipocalin 2, parent wild type SEQ ID NO: 1) mutein SEQ ID NO: 39 (Homo sapiens, UniProt P80188, A60R/C107S/D97A/I61W/K145T/K154E/K93L/L123P/L56F/L90N/N116R/Q48H/Q69I/R101S/R92W/S147I/S88Q/W99S/Y120I/Y126E/Y152F); conditions: solution binding ELISA
T3 construct: made in house; host or cells: E. coli
Method: (§5) The concentration of free (non ligand-bound) muteins was determined via a quantitative ELISA setup.
(§6) In detail, a 384-well plate suitable for fluorescence measurements (Greiner FLUOTRAC™ 600, black flat bottom, high-binding) was coated with 20 μl of Neutravidin at a concentration of 5 μg/ml in PBS overnight at 4 C. After washing, the Neutravidin-coated wells were blocked with 100 μl blocking buffer containing 0.1% Tween 20 and 2% BSA (PBS-T/BSA) for 1 h at room temperature.
(§7) The residual supernatants were discarded and 20 μl HRP-labeled anti-hNGAL antibody was added at a predetermined optimal concentration in PBS-T/BSA and incubated for 1 h at RT. […] After washing, 20 μl fluorogenic HRP substrate (QuantaBlu, Thermo) was added to each well, and the reaction was allowed to proceed for 15 to 60 minutes. The fluorescence intensity of every well on the plate was read using a fluorescence microplate reader (Tecan or Molecular Devices). […] Curve fitting was performed using GraphPad Prism 4 software.

[5] = target: T4, hNGAL (human lipocalin 2, parent wild type SEQ ID NO: 1) mutein SEQ ID NO: 42 (Homo sapiens, UniProt P80188, A60L/C107S/D97Q/I61A/K154W/K93H/L123Q/L56E/L90R/N116L/Q48H/Q69K/R101A/S147V/S88E/W99D/Y120D/Y126E/Y152F/Y72M); experiment: Solution binding ELISA
T4 construct: made in house; host or cells: E. coli
Method: as §5, §6, §7

[6] = target: T5, hNGAL (human lipocalin 2, parent wild type SEQ ID NO: 1) mutein SEQ ID NO: 43 (Homo sapiens, UniProt P80188, A60L/C107S/D97K/I61A/K154W/K93Q/L123Q/L56E/L90R/N116L/Q48H/Q69M/R101V/S147V/S88E/W99D/Y120D/Y126E/Y72M); experiment: Solution binding ELISA
T5 construct: made in house; host or cells: E. coli
Method: as §5, §6, §7

[7] = target: T6, hNGAL (human lipocalin 2, parent wild type SEQ ID NO: 1) mutein SEQ ID NO: 44 (Homo sapiens, UniProt P80188, A60L/C107S/D97K/I61T/K154W/K93R/L123Q/L56E/L90R/N116V/Q48H/Q69M/R101V/S147V/S88E/W99D/Y120D/Y126E/Y72M); experiment: Solution binding ELISA
T6 construct: made in house; host or cells: E. coli
Method: as §5, §6, §7

[8] = target: T7, hNGAL (human lipocalin 2, parent wild type SEQ ID NO: 1) mutein SEQ ID NO: 45 (Homo sapiens, UniProt P80188, A60L/C107S/D97K/I61A/K154W/K93H/L123Q/L56E/L90R/N116L/Q48H/Q69M/R101V/S147V/S88E/W99D/Y120D/Y126E/Y72M); experiment: Solution binding ELISA
T7 construct: made in house; host or cells: E. coli
Method: as §5, §6, §7

[9] = target: T8, hNGAL (human lipocalin 2, parent wild type SEQ ID NO: 1) mutein SEQ ID NO: 46 (deletion of G-N-I-K, positions 95-98) (Homo sapiens, UniProt P80188, A60L/C107S/D97Q/DEL115-118/I61A/K154W/K93Y/L123Q/L56E/L90R/Q48H/Q69K/R101V/S147V/S88E/W99D/Y120E/Y126E/Y152F/Y72M); experiment: Solution binding ELISA
T8 construct: made in house; host or cells: E. coli
Method: as §5, §6, §7

[10] = target: T9, hNGAL (human lipocalin 2, parent wild type SEQ ID NO: 1) mutein SEQ ID NO: 47 (Homo sapiens, UniProt P80188, A60L/C107S/D97K/I61A/K154W/K93H/L123Q/L56E/L62R/L90R/N116L/Q48H/Q69M/R101V/S125P/S147V/S88E/W99D/Y120D/Y126E/Y72M); experiment: Solution binding ELISA
T9 construct: made in house; host or cells: E. coli
Method: as §5, §6, §7

[11] = target: T10, hNGAL (human lipocalin 2, parent wild type SEQ ID NO: 1) mutein SEQ ID NO: 48 (Homo sapiens, UniProt P80188, A60L/C107S/D67N/D97K/I61A/K154W/K93H/L123Q/L56E/L90R/N116L/Q48H/Q69M/R101V/S125P/S147V/S88E/T165P/W99D/Y120D/Y126E/Y72M); experiment: Solution binding ELISA
T10 construct: made in house; host or cells: E. coli
Method: as §5, §6, §7

[12] = target: T11, hNGAL (human lipocalin 2, parent wild type SEQ ID NO: 1) mutein SEQ ID NO: 50 (Homo sapiens, UniProt P80188, A60L/C107S/D97K/I61A/K154W/K93H/L123Q/L56E/L62R/L90R/N116L/N85D/Q48H/Q69M/R101V/S125P/S147V/S88E/W99D/Y120D/Y126E/Y72M); experiment: Solution binding ELISA; conditions: Example 5
T11 construct: made in house; host or cells: E. coli
Method: as §5, §6, §7

[13] = target: T12, hNGAL (human lipocalin 2, parent wild type SEQ ID NO: 1) mutein SEQ ID NO: 53 (Homo sapiens, UniProt P80188, A60L/C107S/D97K/I61A/K154W/K93H/L123Q/L56E/L62R/L90R/N116L/N85D/Q69M/R101V/S125P/S147V/S88E/W99D/Y120D/Y126E/Y72M); experiment: Solution binding ELISA; conditions: Example 5
T12 construct: made in house; host or cells: E. coli
Method: as §5, §6, §7
The concentration of free (non ligand-bound) mutein or fusion molecule construct was determined via a quantitative ELISA setup.
In detail, a 384-well plate suitable for fluorescence measurements (Greiner FLUOTRAC™ 600, black flat bottom, high-binding) was coated with 20 μl of Neutravidin at a concentration of 5 μg/ml in PBS overnight at 4° C. After washing, the Neutravidin-coated wells were blocked with 100 μl blocking buffer containing 0.1% Tween 20 and 2% BSA (PBS-T/BSA) for 1 h at room temperature.
The residual supernatants were discarded and 20 μl HRP-labeled anti-hNGAL antibody was added at a predetermined optimal concentration in PBS-T/BSA and incubated for 1 h at RT. […] After washing, 20 μl fluorogenic HRP substrate (QuantaBlu, Thermo) was added to each well, and the reaction was allowed to proceed for 15 to 60 minutes. The fluorescence intensity of every well on the plate was read using a fluorescence microplate reader (Tecan or Molecular Devices). […] IC50 values were fitted by nonlinear regression with a single-sites binding model. Curve fitting was performed using GraphPad Prism 4 software.

[14] = target: T13, Fusion molecule SEQ ID NO: 134 (hNGAL muteins SEQ ID NOs: 36, 16, 53 and 62) (Homo sapiens, UniProt P80188, A60T/C107S/D97H, form not given/K145I/K154W/K93R/L123T/L56V/L90R/N85D/Q69G/R101D/R92I/S147R/S88D/T74A/W99Y/Y126Q/Y152I/Y72N); experiment: Solution binding ELISA; conditions: binding to target in solution, tracer 0.1 nM, Table 11
T13 construct: made in house
T13 sequence (P80188 with tags, fused parts or gaps with the stated changes, form open): as above

[15] = target: T12, hNGAL (human lipocalin 2, parent wild type SEQ ID NO: 1) mutein SEQ ID NO: 53; experiment: Surface plasmon resonance (Biacore T200); type: binding; conditions: SPR, 25° C., Table 2C
Method: as §2, §3, §4
In a surface plasmon resonance (SPR) based assay, a Biacore T200 instrument (GE Healthcare) was used to measure the binding affinity of individual muteins or fusion molecules to pyoverdine siderophores (to pyoverdine I succinyl, -succinamide, -α-ketoglutaryl with complexed iron ion or to pyoverdine II succinyl, -succinamide, -α-ketoglutaryl with complexed iron ion or to pyoverdine III succinyl, -succinamide, -α-ketoglutaryl with complexed iron ion). To this end, muteins selected for binding to pyoverdines (SEQ ID NOs: 16, 36, 53), a fusion molecule (SEQ ID NO: 134) and a negative control (SEQ ID NO: 64) were biotinylated for 2 h at room temperature applying an appropriate excess of EZ-Link NHS-PEG4-Biotin (Thermo, Cat #21329) followed by separation of non-reacted biotin using a Zebra Spin Desalting Plate (Thermo, Cat #21329) according to the manufacturer's instructions.
In the SPR affinity assay, biotinylated muteins and negative control were captured on a sensor chip CAP using the Biotin CAPture Kit (GE Healthcare), wherein the Sensor Chip CAP is pre-immobilized with an ssDNA oligo. Undiluted Biotin CAPture Reagent (streptavidin conjugated with the complementary ss-DNA oligo) was applied at a flow rate of 2 μl/min for 300 s. Subsequently, 20 μg/ml to 100 μg/mL of biotinylated muteins or fusion molecule negative control were applied for 300 s at a flow rate of 5 μl/min. The reference channel was loaded with Biotin CAPture Reagent only. To determine the binding affinity, four dilutions of the respective Pvd were prepared in HBS-EP+ buffer (GE Healthcare) and applied to the chip surface. Applying a flow rate of 30 μl/min, a single cycle kinetics approach was used with a sample contact time of 180 s and a dissociation time of 1800-2400 s. […] After ligand immobilization, the four concentrations of Pvd were applied consecutively in ascending order before the dissociation was monitored. All measurements were performed at 25° C. […] Data were evaluated with Biacore T200 Evaluation software (V 1.0). Double referencing was preformed.

[16] = target: hNGAL (human lipocalin 2), wild type, SEQ ID NO: 1 (Homo sapiens, UniProt P80188); conditions: cited from earlier work
hNGAL (human lipocalin 2), wild type, SEQ ID NO: 1, sequence (P80188 21-198): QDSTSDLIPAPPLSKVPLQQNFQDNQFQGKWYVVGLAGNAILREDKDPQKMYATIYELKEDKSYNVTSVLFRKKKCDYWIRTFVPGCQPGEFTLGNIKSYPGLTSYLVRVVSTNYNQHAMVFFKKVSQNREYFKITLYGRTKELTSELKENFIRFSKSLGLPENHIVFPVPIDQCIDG

T10 sequence (P80188 other isoform, or with tags, fused parts or gaps with the stated changes): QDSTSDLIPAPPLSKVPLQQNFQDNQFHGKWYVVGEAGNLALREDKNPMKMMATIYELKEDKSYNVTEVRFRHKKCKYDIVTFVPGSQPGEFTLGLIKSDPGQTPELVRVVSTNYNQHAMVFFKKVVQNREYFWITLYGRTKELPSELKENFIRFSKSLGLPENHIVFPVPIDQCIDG
T6 sequence (P80188 other isoform, or with tags, fused parts or gaps with the stated changes): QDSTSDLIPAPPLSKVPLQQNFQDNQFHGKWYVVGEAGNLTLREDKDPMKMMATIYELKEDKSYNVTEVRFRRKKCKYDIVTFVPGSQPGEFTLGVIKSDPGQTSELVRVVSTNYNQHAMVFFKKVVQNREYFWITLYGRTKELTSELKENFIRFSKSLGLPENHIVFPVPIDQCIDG
T8 sequence (P80188 other isoform, or with tags, fused parts or gaps with the stated changes): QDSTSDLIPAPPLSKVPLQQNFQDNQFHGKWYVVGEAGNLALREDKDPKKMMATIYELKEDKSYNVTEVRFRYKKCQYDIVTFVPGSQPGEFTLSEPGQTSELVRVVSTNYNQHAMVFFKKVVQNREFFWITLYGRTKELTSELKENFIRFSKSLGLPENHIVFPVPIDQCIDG
T3 sequence (P80188 other isoform, or with tags, fused parts or gaps with the stated changes): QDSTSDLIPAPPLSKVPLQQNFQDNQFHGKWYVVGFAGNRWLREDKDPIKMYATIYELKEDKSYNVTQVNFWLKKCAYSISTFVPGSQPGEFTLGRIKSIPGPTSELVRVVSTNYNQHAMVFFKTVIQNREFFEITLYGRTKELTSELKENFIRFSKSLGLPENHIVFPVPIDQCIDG
lipocalin negative control SEQ ID NO: 64, sequence (P80188 21-198 Q48H/C107S): as the sequence (P80188 21-198) above, with Q28H, C87S counted along it
T12 sequence (P80188 21-198 with the stated changes): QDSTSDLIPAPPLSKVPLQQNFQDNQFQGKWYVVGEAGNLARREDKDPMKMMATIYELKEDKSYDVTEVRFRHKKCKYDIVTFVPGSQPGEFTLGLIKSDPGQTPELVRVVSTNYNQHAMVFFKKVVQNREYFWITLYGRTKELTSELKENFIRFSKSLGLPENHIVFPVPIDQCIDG
T11 sequence (P80188 other isoform, or with tags, fused parts or gaps with the stated changes): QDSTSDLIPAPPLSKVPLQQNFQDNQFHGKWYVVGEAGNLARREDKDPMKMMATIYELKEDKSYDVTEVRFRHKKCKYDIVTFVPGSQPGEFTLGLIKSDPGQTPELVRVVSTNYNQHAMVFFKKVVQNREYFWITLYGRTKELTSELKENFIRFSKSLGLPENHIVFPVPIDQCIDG
T5 sequence (P80188 other isoform, or with tags, fused parts or gaps with the stated changes): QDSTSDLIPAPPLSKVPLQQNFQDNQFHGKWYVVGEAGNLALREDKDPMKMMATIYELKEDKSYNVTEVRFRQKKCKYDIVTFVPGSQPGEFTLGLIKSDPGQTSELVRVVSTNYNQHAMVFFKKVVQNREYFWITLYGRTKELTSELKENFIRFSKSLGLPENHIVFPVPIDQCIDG
T4 sequence (P80188 other isoform, or with tags, fused parts or gaps with the stated changes): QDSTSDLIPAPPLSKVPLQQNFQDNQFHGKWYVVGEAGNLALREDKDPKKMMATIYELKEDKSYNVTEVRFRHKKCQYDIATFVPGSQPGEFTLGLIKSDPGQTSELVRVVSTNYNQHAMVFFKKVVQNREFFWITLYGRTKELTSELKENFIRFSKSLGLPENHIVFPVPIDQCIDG
T9 sequence (P80188 other isoform, or with tags, fused parts or gaps with the stated changes): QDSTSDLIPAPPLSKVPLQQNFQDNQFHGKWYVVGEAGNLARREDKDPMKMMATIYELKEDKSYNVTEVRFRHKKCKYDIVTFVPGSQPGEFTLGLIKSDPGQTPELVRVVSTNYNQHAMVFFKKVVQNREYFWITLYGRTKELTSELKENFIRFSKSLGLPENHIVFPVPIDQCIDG
T7 sequence (P80188 other isoform, or with tags, fused parts or gaps with the stated changes): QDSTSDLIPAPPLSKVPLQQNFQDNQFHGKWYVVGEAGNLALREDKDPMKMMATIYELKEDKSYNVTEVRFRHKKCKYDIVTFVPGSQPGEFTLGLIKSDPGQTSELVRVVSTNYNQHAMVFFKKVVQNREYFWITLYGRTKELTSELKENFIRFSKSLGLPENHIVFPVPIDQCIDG
T1 sequence (P80188 21-198 with the stated changes): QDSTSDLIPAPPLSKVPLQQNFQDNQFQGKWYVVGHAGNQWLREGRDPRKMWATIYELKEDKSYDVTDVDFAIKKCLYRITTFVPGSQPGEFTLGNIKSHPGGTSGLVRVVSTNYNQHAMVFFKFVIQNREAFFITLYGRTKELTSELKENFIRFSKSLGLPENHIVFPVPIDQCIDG

Molecule	IC50 [4]	IC50 [5]	IC50 [6]	IC50 [7]	IC50 [8]	IC50 [9]	IC50 [10]	IC50 [11]	IC50 [12]	IC50 [13]	IC50 [14]	Kd ([2]; Biacore, 25° C., Table 13)	binding [16]	further results
CC(=O)N(O)CCCCCNC(=O)CCC(=O)N(O)CCCCCNC(=O)CCC(=O)N(O)CCCCCN [Desferoxamin, desferoxamine]	–	–	–	–	–	–	–	–	–	–	–	–	–	binding [1]: absence of binding; KD ([2]; Biacore, 25° C., Table 13): no bdg; binding ([2]; high concentrations (≥1 μM)): absence of binding
C[C@@H](O)[C@@H](NC(=O)CNC(=O)[C@H](CCCN)NC(=O)[C@@H](CCCN([O-])C=O)NC(=O)[C@@H](CO)NC(=O)[C@@H]1CCNc2c(NC(=O)CCC(=O)O)cc3cc([O-])c([O-])cc3[n+]21)C(=O)N[C@@H](CO)C(=O)N[C@H]1CCCN([O-])C1=O.[Fe+3] [Pvd II s (+Fe), Pvd type II succinyl] (Suc-[X1][dS][dOrn(N5-OH,N5-CHO)][Orn]G[d(aThr)]S-X2)	–	–	–	–	–	–	–	–	–	–	–	–	–	binding ([3]; SPR, analyte at 1200 nM): absence of binding
NC(=O)CC[C@H](NC(=O)[C@H](CCCN([O-])C=O)NC(=O)[C@@H]1CCN=C([C@@H](CO)NC(=O)[C@@H]2CCNc3c(NC(=O)C(=O)CCC(=O)O)cc4cc([O-])c([O-])cc4[n+]32)N1)C(=O)N[C@H](CCC(N)=O)C(=O)N[C@H](CCCN([O-])C=O)C(=O)NCC(=O)O.[Fe+3] [Pvd III aKG (+Fe), Pvd type III α-ketoglutaryl]	23 nM	78 nM	1.4 nM	0.93 nM	1.5 nM	1.02 nM	0.82 nM	0.95 nM	0.95 nM	0.54 nM	0.58 nM	1.04 nM	–	Kd [15]: 3.6 nM; koff [15]: 0.00014 s⁻¹; kon [15]: 38800 M⁻¹ s⁻¹
NC(=O)CC[C@H](NC(=O)[C@H](CCCN(O)C=O)NC(=O)[C@@H]1CCN=C([C@@H](CO)NC(=O)[C@@H]2CCNc3c(NC(=O)C(=O)CCC(=O)O)cc4cc(O)c(O)cc4[n+]32)N1)C(=O)N[C@H](CCC(N)=O)C(=O)N[C@H](CCCN(O)C=O)C(=O)NCC(=O)O [Pvd III aKG (−Fe), Pvd type III α-ketoglutaryl]	23 nM	69 nM	1.9 nM	1.1 nM	1.7 nM	1.2 nM	0.58 nM	0.64 nM	0.82 nM	0.33 nM	0.7 nM	18.7 nM	–	–
NC(=O)CC[C@H](NC(=O)[C@H](CCCN([O-])C=O)NC(=O)[C@@H]1CCN=C([C@@H](CO)NC(=O)[C@@H]2CCNc3c(NC(=O)CCC(=O)O)cc4cc([O-])c([O-])cc4[n+]32)N1)C(=O)N[C@H](CCC(N)=O)C(=O)N[C@H](CCCN([O-])C=O)C(=O)NCC(=O)O.[Fe+3] [Pvd III s (+Fe), Pvd type III succinyl]	–	–	–	–	–	–	–	–	–	–	–	–	–	binding ([3]; SPR, analyte at 1200 nM): absence of binding
NC(=O)CCC(=O)Nc1cc2cc([O-])c([O-])cc2[n+]2c1NCC[C@H]2C(=O)N[C@H](CO)C1=NCC[C@@H](C(=O)N[C@@H](CCCN([O-])C=O)C(=O)N[C@@H](CCC(N)=O)C(=O)N[C@H](CCC(N)=O)C(=O)N[C@H](CCCN([O-])C=O)C(=O)NCC(=O)O)N1.[Fe+3] [Pvd III sa (+Fe), Pvd type III succinamide]	147 nM	15 nM	0.25 nM	0.26 nM	0.43 nM	0.3 nM	0.3 nM	0.22 nM	0.35 nM	0.25 nM	0.31 nM	0.27 nM	–	Kd [15]: 0.58 nM; koff [15]: 3.9e-05 s⁻¹; kon [15]: 67300 M⁻¹ s⁻¹
NC(=O)CCC(=O)Nc1cc2cc(O)c(O)cc2[n+]2c1NCC[C@H]2C(=O)N[C@H](CO)C1=NCC[C@@H](C(=O)N[C@@H](CCCN(O)C=O)C(=O)N[C@@H](CCC(N)=O)C(=O)N[C@H](CCC(N)=O)C(=O)N[C@H](CCCN(O)C=O)C(=O)NCC(=O)O)N1 [Pvd III sa (−Fe), Pvd type III succinamide]	94 nM	7.2 nM	0.46 nM	0.21 nM	0.46 nM	0.3 nM	0.28 nM	0.24 nM	0.37 nM	0.63 nM	0.27 nM	1.65 nM	–	–
O=C(N[C@H]1COC(=O)[C@@H](NC(=O)c2cccc(O)c2O)COC(=O)[C@@H](NC(=O)c2cccc(O)c2O)COC1=O)c1cccc(O)c1O.[Fe+3] [enterobactin]	–	–	–	–	–	–	–	–	–	–	–	–	high affinity	–
CN1[C@@H]([C@H]2CSC(c3ccccc3O)=N2)SC[C@H]1C(=O)O [pyochelin]	–	–	–	–	–	–	–	–	–	–	–	–	does not bind	binding ([3]; Biacore, Example 18): did not show binding; binding ([2]; His-tagged fusion captured via Ni-NTA): clearly detectable
pyoverdine	–	–	–	–	–	–	–	–	–	–	–	–	does not bind	binding [1]: absence of binding; binding ([3]; Biacore, Example 18): did not show binding
